Experimental data published in US20240002379A1, “ASYMMETRIC CONJUGATE COMPOUNDS” (Pheon Therapeutics Ltd., priority 2016, published 2024).

How the values were obtained:
[1] = test system: SW620 cell line (gastric); assay: MTT cytotoxicity assay, SW620; assay type: cell-based; conditions: Homo sapiens, SW-620; MTT assay, 72 hour incubation; read-out: Cytotoxicity SW620 (72 hours)
Outline: (§1)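 Cells seeded at 1800/well in RPMI1640 + 10% FBS, adhered overnight, then exposed to compound 72 h at 37° C. Survival by MTT (500 μg/ml, 4 h), formazan in DMSO read at 540 nm, blank-corrected versus untreated wells; IC50 read from concentration–survival plot.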

SW48 cell line (gastric) = assay: MTT cytotoxicity assay, SW48; assay type: cell-based; conditions: Homo sapiens, SW48; MTT assay, 72 hour incubation; read-out: Cytotoxicity SW48 (72 hrs)
Outline: as §1

[2] = test system: LIM1215 cell line (gastric); assay: MTT cytotoxicity assay, LIM1215; assay type: cell-based; conditions: LIM1215; MTT assay, 72 hour incubation; read-out: Cytotoxicity LIM1215 (72 hours)
Outline: as §1

[3] = test system: fluorescently labelled DNA duplex 5′-[…]-3′; assay: FRET DNA melting, FIG. 13 bottom duplex (intrastrand); assay type: binding
Description: FRET DNA melting studies were undertaken on 13 using two fluorescently labelled sequences. The sequences (FIG. 13) were designed to provide additional evidence that 13 can form inter- and intrastrand cross-links. Inosines were inserted in place of traditional DNA bases to limit the number of binding sites available for 13 to interact with.
Oligonucleotides were obtained from ATDbio (Southampton, UK) in lyophilised form. They were labelled with a fluorophore molecule (F=fluorescein) at the 5′-end and a quencher molecule (Q=dabcyl) at the 3′-end of the complementary strand. Each oligonucleotide was dissolved in distilled H2O to form stock solutions of 100 PM. Working solutions of 5 μM were prepared by diluting the stock solution with distilled H2O. […]
(§2) The reaction mixture was comprised of 4 μL of 250 mM phosphate buffer (final concentration of 50 mM), 4 μL flourophor and 4 μL quencher molecule of the appropriate oligonucleotide for a final concentration of 0.2 PM, 4 μL 5 M sodium chloride (final concentration of 1 M NaCl), and 4 μL of distilled H2O. […] This mixture was analysed without prior annealing.
(§3) Fluorescence melting profiles were measured using a Roche LightCycler using a total reaction volume of 20 μL. […] Annealing steps and melting steps were all recorded and changes in fluorescence were measured at 520 nm. […]

[4] = test system: fluorescently labelled DNA duplex 5′-[…]-3′; assay: FRET DNA melting, FIG. 17 bottom sequence; assay type: binding; conditions: at higher concentrations; intra-strand cross-links
Description: Further FRET DNA melting studies were undertaken on a number of molecules using three fluorescently labelled sequences. The sequences (FIG. 17) were designed to provide additional evidence that the series can form inter- and intrastrand cross-links. Inosines were inserted in place of traditional DNA bases in some cases to limit the number of binding sites available for the compounds to interact with. The short duplexes used in this FRET study are relatively unstable in the duplex form with a melting temperature below 30° C. so that, in the absence of ligand, a large part of the melting occurs below the starting temperature of the experiment. […] Increasing concentrations of 13 cause a greater amount of the melting transition to appear at the higher temperature (i.e. a greater number of the DNA molecules are cross-linked). […]
as §2, §3

SMILES	IC50 [1]	IC50 (SW48 cell line (gastric))	IC50 [2]	change of melting temperature with compound concentration ([3]; FIG. 14 bottom panel)	Tm value ([3]; duplex alone melts below 30° C., suggests intra-strand cross-link)	Tm [4]
COc1cc2c(cc1OCCCC(=O)N1C[C@@H](CCl)c3c1cc(O)c1ccccc31)N=C[C@@H]1CCCCN1C2=O [Compound 13, (S)-3-(4-((S)-1-(Chloromethyl)-5-hydroxy-1,2-dihydro-3H-benzo[e]indol-3-yl)-4-oxobutoxy)-2-methoxy-7,8,9,10-tetrahydrobenzo[e]-pyrido[1,2-a][1,4]diazepin-12(6aH)-one]	420 pM	280 pM	680 pM	increases significantly	60 °C	
COc1cc2c(cc1OCc1cccc(CC(=O)N3C[C@@H](CCl)c4c3cc(O)c3ccccc43)c1)N=C[C@@H]1CCCCN1C2=O [Compound 42, (S)-3-((3-(2-((S)-1-(Chloromethyl)-5-hydroxy-1,2-dihydro-3H-benzo[e]indol-3-yl)-2-oxoethyl)benzyl)oxy)-2-methoxy-7,8,9,10-tetrahydrobenzo[e]pyrido[1,2-a][1,4]diazepin-12(6aH)-one]						~80 °C
